Data taken from patent US12570655B2, “Cysteine covalent modifiers of AKT1 and uses thereof” (Terremoto Biosciences, Inc., priority 2023, dated 2026).

Experiments:
Format in all cases: cell-based
AKT2 = target: T1, AKT2 (Homo sapiens, UniProt P31751); test: Live cell AKT2 target engagement by NanoBRET competitive probe displacement; conditions: HEK293 cells transfected with kinase-NanoLuciferase fusion, 2 h at 37° C.
T1 construct: expressed in transfected cells; host or cells: HEK293
Protocol: (§1) Determining Live Cell AKT1 E17K, AKT1 WT, and AKT2 Target Engagement by NanoBRET Competitive Probe Displacement.
(§2) Live cell target engagement assays were performed as described (Vasta, J. D. et al. Cell Chem Biol 2018, 25(11), 206-214). Briefly, HEK293 cells were transfected with plasmids encoding kinase-NanoLuciferase fusion proteins overnight. Cells were then treated with serial dilutions of compound and an ˜EC50 concentration of fluorescently-tagged ATP-competitive tracer (Promega). After incubation for 2 h at 37° C., luciferase substrate and extracellular luciferase inhibitor were added to all wells, and luminescent intensity at 460 nm and 600 nm were measured on a multimode plate-reader. The ratio of E600/E460 was calculated to give the tracer engagement signal (BRET). IC50 values were calculated by fitting BRET values to a log(inhibitor) vs. response Hill equation.

AKT1 WT = target: T2, AKT1 WT (Homo sapiens, UniProt P31749); test: Live cell AKT1 WT target engagement by NanoBRET competitive probe displacement; conditions: HEK293 cells transfected with kinase-NanoLuciferase fusion, 2 h at 37° C.
T2 construct: expressed in transfected cells; host or cells: HEK293
Protocol: as §1, §2

AKT1 E17K = target: T3, AKT1 E17K (Homo sapiens, UniProt P31749, E17K); test: Live cell AKT1 E17K target engagement by NanoBRET competitive probe displacement; conditions: HEK293 cells transfected with kinase-NanoLuciferase fusion, 2 h at 37° C.
T3 construct: expressed in transfected cells; host or cells: HEK293
In short: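 Steps: overnight transfection of HEK293 with kinase-NanoLuc plasmids; addition of compound dilutions and tracer (~EC50); 2 h incubation at 37 °C; substrate plus extracellular luciferase inhibitor; luminescence at 460 and 600 nm. IC50 values came from fitting the BRET ratio to a Hill equation.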

[1] = system: LAPC4 prostate cancer cells; test: Antiproliferative effects in LAPC4 cells (CellTiter Glo); conditions: LAPC4 cells (AKT1 E17K allele), 72 h, read-out: LAPC4 proliferation IC50
In short: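 Growth inhibition is gauged by intracellular ATP content, measured with CellTiter Glo 72 h after compound addition to 1,000 seeded cells per well. IC50 derives from a Hill equation fit.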

T3 sequence (P31749 whole entry E17K, the tested form may be a part): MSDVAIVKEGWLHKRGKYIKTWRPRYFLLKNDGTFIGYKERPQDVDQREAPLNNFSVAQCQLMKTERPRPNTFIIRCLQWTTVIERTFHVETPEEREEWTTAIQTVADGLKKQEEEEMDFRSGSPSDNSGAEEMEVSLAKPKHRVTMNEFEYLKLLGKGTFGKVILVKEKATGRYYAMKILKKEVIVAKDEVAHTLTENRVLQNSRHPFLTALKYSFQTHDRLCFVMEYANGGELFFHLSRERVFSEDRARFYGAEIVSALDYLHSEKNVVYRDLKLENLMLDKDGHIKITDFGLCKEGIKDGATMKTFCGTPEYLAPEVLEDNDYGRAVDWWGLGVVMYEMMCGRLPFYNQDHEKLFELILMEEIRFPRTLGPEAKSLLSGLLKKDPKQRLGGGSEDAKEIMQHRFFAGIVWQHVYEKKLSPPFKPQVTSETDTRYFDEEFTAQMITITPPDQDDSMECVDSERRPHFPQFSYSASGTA
T1 sequence (P31751 whole entry, the tested form may be a part): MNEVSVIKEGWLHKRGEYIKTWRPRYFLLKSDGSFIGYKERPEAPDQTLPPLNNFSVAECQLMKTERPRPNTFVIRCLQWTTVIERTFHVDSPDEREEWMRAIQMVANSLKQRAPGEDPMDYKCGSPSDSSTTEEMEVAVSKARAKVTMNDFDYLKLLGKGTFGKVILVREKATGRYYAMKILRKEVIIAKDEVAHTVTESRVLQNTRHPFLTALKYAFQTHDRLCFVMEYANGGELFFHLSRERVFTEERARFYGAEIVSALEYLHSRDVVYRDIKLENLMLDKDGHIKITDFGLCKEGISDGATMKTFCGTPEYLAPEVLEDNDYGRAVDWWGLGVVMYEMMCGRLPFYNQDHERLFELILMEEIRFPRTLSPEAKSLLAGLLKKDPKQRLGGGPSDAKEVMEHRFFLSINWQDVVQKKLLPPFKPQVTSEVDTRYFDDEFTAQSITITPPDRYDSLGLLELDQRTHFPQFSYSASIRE
T2 sequence (P31749 whole entry, the tested form may be a part): as the sequence (P31749 whole entry E17K, the tested form may be a part) above, with K17E counted along it

IC50 (AKT2) [nM] | IC50 (AKT1 WT) [nM] | IC50 (AKT1 E17K) [nM] | IC50 [1] [nM] | SMILES
549 | 418 | 21.4 |  | C=CC(=O)N1CCC(CC2CCc3cc(-n4c(-c5cccnc5N)nc5ccc(-n6cccn6)nc54)ccc32)CC1 (single isomer, unassigned) [Example 344, 1-(4-(((*)-5-(2-(2-aminopyridin-3-yl)-5-(1H-pyrazol-1-yl)-3H-imidazo[4,5-b]pyridin-3-yl)-2,3-dihydro-1H-inden-1-yl)methyl)piperidin-1-yl)prop-2-en-1-one]
17.9 | 156 | 5.37 |  | C=CC(=O)N1CCC(N[C@@H]2c3ccc(-n4c(-c5ccccc5)nc5ccc(-n6cccn6)nc54)cc3CC2F)CC1C(F)F (single isomer, unassigned) [Example 329, 1-((2*,4*)-2-(difluoromethyl)-4-(((1R,2*)-2-fluoro-5-(2-phenyl-5-(1H-pyrazol-1-yl)-3H-imidazo[4,5-b]pyridin-3-yl)-2,3-dihydro-1H-inden-1-yl)amino)piperidin-1-yl)prop-2-en-1-one]
23.5 | 137 | 6.75 |  | C=CC(=O)N1CCC(N[C@@H]2c3ccc(-n4c(-c5cccnc5N)nc5ccc(-n6ccc(C7CC7)n6)nc54)cc3CC2F)CC1C(F)F (single isomer, unassigned) [Example 334, 1-((2*,4*)-4-(((1*,2*)-5-(2-(2-aminopyridin-3-yl)-5-(3-cyclopropyl-1H-pyrazol-1-yl)-3H-imidazo[4,5-b]pyridin-3-yl)-2-fluoro-2,3-dihydro-1H-inden-1-yl)amino)-2-(difluoromethyl)piperidin-1-yl)prop-2-en-1-one]
63.5 | 268 | 34 |  | C=CC(=O)N1C[C@@H]2[C@H](C1)[C@@H]2NC1CCc2cc(-n3c(-c4cccnc4N)nc4ccc(-n5cccn5)nc43)ccc21 (stereo partly drawn) [Example 345, 1-[(1R,5S,6R)-6-({5-[2-(2-aminopyridin-3-yl)-5-(pyrazol-1-yl)imidazo[4,5-b]pyridin-3-yl]-2,3-dihydro-1H-inden-1-yl}amino)-3-azabicyclo[3.1.0]hexan-3-yl]prop-2-en-1-one]
88.1 | 396 | 16.3 |  | C=CC(=O)N1CCC(N[C@@H]2c3ccc(-n4c(-c5ccccc5)nc5ccc(-c6ccccc6)nc54)cc3CC2F)CC1 (single isomer, unassigned) [Example 324, 1-(4-{[(1R,2*)-5-{2,5-diphenylimidazo[4,5-b]pyridin-3-yl}-2-fluoro-2,3-dihydro-1H-inden-1-yl]amino}piperidin-1-yl)prop-2-en-1-one]
28.3 | 288 | 9.48 |  | C=CC(=O)N1CCC(NC2c3ccc(-n4c(-c5cccnc5N)nc5ccc(-n6ccc(C7CC7)n6)nc54)cc3CC2F)CC1C(F)F (single isomer, unassigned) [Example 335, 1-((2*,4*)-4-(((1*,2*)-5-(2-(2-aminopyridin-3-yl)-5-(3-cyclopropyl-1H-pyrazol-1-yl)-3H-imidazo[4,5-b]pyridin-3-yl)-2-fluoro-2,3-dihydro-1H-inden-1-yl)amino)-2-(difluoromethyl)piperidin-1-yl)prop-2-en-1-one]
25.4 | 523 | 16.4 |  | C=CC(=O)N1CCC(NC2c3ccc(-n4c(-c5cccnc5N)nc5ccc(-n6ccc(C7CC7)n6)nc54)cc3CC2F)CC1C(F)F (single isomer, unassigned) [Example 336, 1-((2*,4*)-4-(((1*,2*)-5-(2-(2-aminopyridin-3-yl)-5-(3-cyclopropyl-1H-pyrazol-1-yl)-3H-imidazo[4,5-b]pyridin-3-yl)-2-fluoro-2,3-dihydro-1H-inden-1-yl)amino)-2-(difluoromethyl)piperidin-1-yl)prop-2-en-1-one]
45.3 | 263 | 6.22 |  | C=CC(=O)N1CCC(N[C@H]2CCc3cc(-n4c(-c5cccnc5N)nc5ccc(-n6ccc(C7(F)CC7)n6)nc54)ccc32)CC1 [Example 323, 1-(4-{[(1S)-5-[2-(2-aminopyridin-3-yl)-5-[3-(1-fluorocyclopropyl)pyrazol-1-yl]imidazo[4,5-b]pyridin-3-yl]-2,3-dihydro-1H-inden-1-yl]amino}piperidin-1-yl)prop-2-en-1-one]
> 10000 | 726 |  |  | C=C(F)C(=O)N1CCC(N[C@H]2CCc3cc(-n4c(-c5cccnc5N)nc5ccc(-n6cccn6)nc54)ccc32)CC1 [Example 46, 1-(4-{[(1S)-5-[2-(2-aminopyridin-3-yl)-5-(pyrazol-1-yl)imidazo[4,5-b]pyridin-3-yl]-2,3-dihydro-1H-inden-1-yl]amino}piperidin-1-yl)-2-fluoroprop-2-en-1-one]
69.3 | 1480 | 31 |  | C=CC(=O)N1CCC(N[C@@H]2c3ccc(-n4c(-c5ccccc5)nc5ccc(-n6cccn6)nc54)cc3CC2F)CC1C(F)F (single isomer, unassigned) [Example 330, 1-((2*,4*)-2-(difluoromethyl)-4-(((1R,2*)-2-fluoro-5-(2-phenyl-5-(1H-pyrazol-1-yl)-3H-imidazo[4,5-b]pyridin-3-yl)-2,3-dihydro-1H-inden-1-yl)amino)piperidin-1-yl)prop-2-en-1-one]
101 | 298 | 7.92 |  | C=CC(=O)N1CCC(N[C@@H]2c3ccc(-n4c(-c5ccccc5)nc5ccc(-c6ccccc6)nc54)cc3CC2F)CC1 (single isomer, unassigned) [Example 325, 1-(4-{[(1R,2*)-5-{2,5-diphenylimidazo[4,5-b]pyridin-3-yl}-2-fluoro-2,3-dihydro-1H-inden-1-yl]amino}piperidin-1-yl)prop-2-en-1-one]
112 |  | 19.2 | 540 | C=CC(=O)N1CCC(N[C@@H]2c3ccc(-n4c(-c5ccccc5F)nc5ccc(-n6cccn6)nc54)cc3CC2F)C[C@H]1C (single isomer, unassigned) [Example 316, 1-((2R,4*)-4-(((1R,2*)-2-fluoro-5-(2-(2-fluorophenyl)-5-(1H-pyrazol-1-yl)-3H-imidazo[4,5-b]pyridin-3-yl)-2,3-dihydro-1H-inden-1-yl)amino)-2-methylpiperidin-1-yl)prop-2-en-1-one]
301 |  | 49.6 | 1600 | C=CC(=O)N1CCC(N[C@@H]2c3ccc(-n4c(-c5ccccc5F)nc5ccc(-n6cccn6)nc54)cc3CC2F)C[C@H]1C (single isomer, unassigned) [Example 319, 1-((2R,4*)-4-(((1R,2*)-2-fluoro-5-(2-(2-fluorophenyl)-5-(1H-pyrazol-1-yl)-3H-imidazo[4,5-b]pyridin-3-yl)-2,3-dihydro-1H-inden-1-yl)amino)-2-methylpiperidin-1-yl)prop-2-en-1-one]
211 |  | 50.9 | 510 | C=CC(=O)N1C[C@H]2COC[C@@H](C1)C2N[C@H]1CCc2cc(-n3c(-c4cccnc4N)nc4ccc(C5CC5)nc43)ccc21 (single isomer, unassigned) [Example 172, 1-((1R,5S,9*)-9-(((S)-5-(2-(2-aminopyridin-3-yl)-5-cyclopropyl-3H-imidazo[4,5-b]pyridin-3-yl)-2,3-dihydro-1H-inden-1-yl)amino)-3-oxa-7-azabicyclo[3.3.1]nonan-7-yl)prop-2-en-1-one]
